Results on 5 molecules are retold here after patent publication US20230174468A1, “SULFATED PILLARARENES, METHODS OF MAKING SAME, AND USES THEREOF” (priority 2007, published 2023).

The conditions of data set [1]: M2.cis complex, previous work; cited from earlier work.
The mark [2] stands for this setting: TA98, +S9, positive control compounds.
Where [3] appears, read: TA98, −S9, positive control compounds.
The mark [4] stands for this setting: TA100, +S9, positive control compounds.
The mark [5] stands for this setting: TA100, −S9, positive control compounds.
The mark [6] stands for this setting: TA1535, +S9, positive control compounds.
Where [7] appears, read: TA1535, −S9, positive control compounds.
[8] abbreviates: TA1537, +S9, positive control compounds.
Where [9] appears, read: TA1537, −S9, positive control compounds.

Read-outs that look alike come from different tables or passages of the source.

As to `CN(N=O)C(=O)N[C@H]1C(O)O[C@H](CO)[C@@H](O)[C@@H]1O` (mixture of isomers) [Streptozotocin], the “number of positive wells” value was 0/48 in the data set on TA98 (setting [2]); 0/48 in the data set with TA98 (setting [3]); 7/48 in the data set with TA100 (setting [4]); 5/48 in the data set with TA100 (setting [5]); 24/48 in the data set with TA1535 (setting [6]); 16/48 in the data set with TA1535 (setting [7]). Also, the “number of positive wells” value in the data set with TA1537 (setting [8]) and in the data set on TA1537 (setting [9]) was 1/48 throughout. Also, the “significance of positive wells vs control (Fisher's exact test)” value is “− (p >0.05 (negative, −))” in the data set with TA98 (setting [2]); “− (p >0.05 (negative, −))” with TA98 (setting [3]); “− (p >0.05 (negative, −))” in the data set with TA100 (setting [4]); “+ (0.01<p<0.05 (weak positive, +))” with TA100 (setting [5]); “+++ (p<0.001 (very strong positive, +++))” in the data set with TA1535 (setting [6]); “+++ (p<0.001 (very strong positive, +++))” in the data set with TA1535 (setting [7]). In addition, the “significance of positive wells vs control (Fisher's exact test)” value with TA1537 (setting [8]) is listed as “− (p >0.05 (negative, −))”; in the data set with TA1537 (setting [9]), “− (p >0.05 (negative, −))”.
For the molecule `Nc1ccc2cc3ccccc3cc2c1` [Host 2-AA, 2-aminoanthracene], the “number of positive wells” value is 13/48 in the data set on TA98 (setting [2]); 0/48 in the data set on TA98 (setting [3]); 11/48 in the data set with TA100 (setting [4]); 0/48 with TA100 (setting [5]); 9/48 in the data set with TA1535 (setting [6]); 0/48 in the data set on TA1535 (setting [7]). The “number of positive wells” value in the data set with TA1537 (setting [8]) was 6/48; with TA1537 (setting [9]), 0/48. Besides, the “significance of positive wells vs control (Fisher's exact test)” value in the data set on TA98 (setting [2]) was “+++ (p<0.001 (very strong positive, +++))”; with TA98 (setting [3]) it was “− (p >0.05 (negative, −))”; in the data set on TA100 (setting [4]) it was “+ (0.01<p<0.05 (weak positive, +))”; in the data set on TA100 (setting [5]) it was “− (p >0.05 (negative, −))”; with TA1535 (setting [6]), “++ (0.001<p <0.01 (strong positive, ++))”; in the data set on TA1535 (setting [7]) it was “− (p >0.05 (negative, −))”. Besides, the “significance of positive wells vs control (Fisher's exact test)” value in the data set on TA1537 (setting [8]) was “+ (0.01<p<0.05 (weak positive, +))”; in the data set with TA1537 (setting [9]), “− (p >0.05 (negative, −))”.
As for `Nc1c2ccccc2nc2ccccc12` [Host 9-AA, 9-aminoacridine], the “number of positive wells” value is reported as 0/48 in the data set with TA98 (setting [2]); 0/48 in the data set on TA98 (setting [3]); 2/48 with TA100 (setting [4]); 0/48 in the data set on TA100 (setting [5]); 0/48 in the data set on TA1535 (setting [6]); 0/48 in the data set on TA1535 (setting [7]). For the same molecule, the “number of positive wells” value with TA1537 (setting [8]) and in the data set on TA1537 (setting [9]) was 24/48 each time. Also, the “significance of positive wells vs control (Fisher's exact test)” value in the data set with TA98 (setting [2]) is listed as “− (p >0.05 (negative, −))”; in the data set with TA98 (setting [3]), “− (p >0.05 (negative, −))”; in the data set with TA100 (setting [4]) it was “− (p >0.05 (negative, −))”; in the data set with TA100 (setting [5]), “− (p >0.05 (negative, −))”; in the data set with TA1535 (setting [6]), “− (p >0.05 (negative, −))”; in the data set on TA1535 (setting [7]), “− (p >0.05 (negative, −))”. The “significance of positive wells vs control (Fisher's exact test)” value was “+++ (p<0.001 (very strong positive, +++))” in the data set with TA1537 (setting [8]) and “+++ (p<0.001 (very strong positive, +++))” in the data set on TA1537 (setting [9]).
`C[C@]12N3Cc4c(c(OCCCS(=O)(=O)[O-])c5ccccc5c4OCCCS(=O)(=O)[O-])CN1C(=O)N1CN4C(=O)N5CN6C(=O)N7CN8C(=O)N9Cc%10c(c(OCCCS(=O)(=O)[O-])c%11ccccc%11c%10OCCCS(=O)(=O)[O-])CN%10C(=O)N(CN%11C(=O)N(CN%12C(=O)N(CN(C3=O)[C@]12C)[C@@H]4[C@H]%125)[C@@H]6[C@H]%117)[C@]8(C)[C@@]9%10C.[Na+].[Na+].[Na+].[Na+]` [Host M2]: the Ka in data set [1] was 4.8e+06 M⁻¹.
In the case of `O=c1c(O)c(-c2ccc(O)c(O)c2)oc2cc(O)cc(O)c12` [Quercetin], the “number of positive wells” value with TA98 (setting [2]) is 10/48; in the data set on TA98 (setting [3]), 5/48; in the data set on TA100 (setting [4]), 5/48; with TA100 (setting [5]), 0/48; with TA1535 (setting [6]), 0/48; in the data set on TA1535 (setting [7]), 1/48. Further, the “number of positive wells” value with TA1537 (setting [8]) was 5/48; in the data set on TA1537 (setting [9]), 1/48. Also, the “significance of positive wells vs control (Fisher's exact test)” value is “+++ (p<0.001 (very strong positive, +++))” in the data set with TA98 (setting [2]); “+ (0.01<p<0.05 (weak positive, +))” with TA98 (setting [3]); “− (p >0.05 (negative, −))” in the data set with TA100 (setting [4]); “− (p >0.05 (negative, −))” in the data set on TA100 (setting [5]); “− (p >0.05 (negative, −))” with TA1535 (setting [6]); “− (p >0.05 (negative, −))” in the data set on TA1535 (setting [7]). Also, the “significance of positive wells vs control (Fisher's exact test)” value with TA1537 (setting [8]) is “+ (0.01<p<0.05 (weak positive, +))”; in the data set with TA1537 (setting [9]), “− (p >0.05 (negative, −))”.
